Assays:
[1] = tested on: Rattus norvegicus
[2] = tested on: Apis mellifera; conditions: acute; oral; unspecified; mortality
[3] = tested on: Canidae; conditions: chronic; duration: 1 years; oral; Dog Other; organ weight
[4] = tested on: Daphnia magna; conditions: chronic/long-term; duration: 21 days
[5] = tested on: Anas platyrhynchos; conditions: reproductive
[6] = tested on: Colinus virginianus; conditions: acute, oral
[7] = tested on: Oncorhynchus mykiss; conditions: acute; duration: 96 hours; mortality
[8] = tested on: Pimephales promelas; conditions: chronic/long-term; duration: 35 days; other
[9] = tested on: Pontoscolex corethrurus; conditions: acute; duration: 14 days; mortality
[10] = tested on: Typhlodromus pyri; experiment: LR50; higher = less toxic; conditions: not reported; mortality
[11] = tested on: Aphidius rhopalosiphi; experiment: LR50; higher = less toxic; conditions: not reported; mortality

CC(C)N1C(=O)c2ccccc2NS1(=O)=O [Bentazone]
LD50 ([1]; acute, M/F): 1640 mg/kg-day | NOAEL ([1]; chronic, duration: 2 years, other): 9 mg/kg-day | NOAEL ([1]; developmental, development): 100 mg/kg-day | NOAEL ([1]; reproduction developmental): 10.3 mg/kg-day | LD50 [2]: > 200 µg/piece | NOAEL [3]: 13 mg/kg-day | NOEC [4]: > 101 mg/L | NOAEL [5]: 56 mg/kg-day | LD50 [6]: 565 mg/kg-day | LC50 ([6]; diet): > 500 mg/kg | LC50 [7]: > 48.6 µg/mL | NOEC [8]: 10 mg/L | LC50 [9]: > 1000 mg/kg | LR50 [10]: 2800 g/ha | LR50 [11]: 699 g/ha
